Test results taken from PubChem BioAssay AID1918930 (Molecular Pharmacology Branch, DTP, NCI, 2023).
Values joined by “and” are separate entries in the source; they are usually repeats but may differ in a detail not shown here. Equal values may be shown once.

Test system: 233499-124-R-J3-PDC complex spheroid viability, % test/control
Test: Anticancer human tumor 233499-124-R-J3-PDC patient-derived colon adenocarcinoma cell line growth inhibition
Conditions: for viability, T/C: stronger effect = lower value
Procedure, shortened: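 Multicellular complex spheroids of tumor cells with human endothelial cells (HUVEC) and mesenchymal stem cells; the LSD1 inhibitor iadademstat was combined with standard-of-care or investigational agents. Top concentration at or near clinical Cmax, half-log dilutions; final DMSO ≤0.25%.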

[1] = curve of first compound, second compound 0.1 µM
[2] = curve of first compound, second compound 0.316 µM
[3] = curve of first compound, second compound 1 µM
[4] = curve of first compound, second compound 3.16 µM
[5] = curve of first compound, second compound 10 µM
[6] = second compound 0.1 µM, first compound 0.00949 µM
[7] = second compound 0.1 µM, first compound 0.03 µM
[8] = second compound 0.1 µM, first compound 0.0949 µM
[9] = second compound 0.1 µM, first compound 0.3 µM
[10] = second compound 0.316 µM, first compound 0.00949 µM
[11] = second compound 0.316 µM, first compound 0.03 µM
[12] = second compound 0.316 µM, first compound 0.0949 µM
[13] = second compound 0.316 µM, first compound 0.3 µM
[14] = second compound 1 µM, first compound 0.00949 µM
[15] = second compound 1 µM, first compound 0.03 µM
[16] = second compound 1 µM, first compound 0.0949 µM
[17] = second compound 1 µM, first compound 0.3 µM
[18] = second compound 3.16 µM, first compound 0.00949 µM
[19] = second compound 3.16 µM, first compound 0.03 µM
[20] = second compound 3.16 µM, first compound 0.0949 µM
[21] = second compound 3.16 µM, first compound 0.3 µM
[22] = second compound 10 µM, first compound 0.00949 µM
[23] = second compound 10 µM, first compound 0.03 µM
[24] = second compound 10 µM, first compound 0.0949 µM
[25] = second compound 10 µM, first compound 0.3 µM
[26] = second compound 0.1 µM, first compound 0.0316 µM
[27] = second compound 0.1 µM, first compound 0.1 µM
[28] = second compound 0.1 µM, first compound 0.316 µM
[29] = second compound 0.1 µM, first compound 1 µM
[30] = second compound 0.1 µM, first compound 3.16 µM
[31] = second compound 0.1 µM, first compound 10 µM
[32] = second compound 0.316 µM, first compound 0.0316 µM
[33] = second compound 0.316 µM, first compound 0.1 µM
[34] = second compound 0.316 µM, first compound 0.316 µM
[35] = second compound 0.316 µM, first compound 1 µM
[36] = second compound 0.316 µM, first compound 3.16 µM
[37] = second compound 0.316 µM, first compound 10 µM
[38] = second compound 1 µM, first compound 0.0316 µM
[39] = second compound 1 µM, first compound 0.1 µM
[40] = second compound 1 µM, first compound 0.316 µM
[41] = second compound 1 µM, first compound 1 µM
[42] = second compound 1 µM, first compound 3.16 µM
[43] = second compound 1 µM, first compound 10 µM
[44] = second compound 3.16 µM, first compound 0.0316 µM
[45] = second compound 3.16 µM, first compound 0.1 µM
[46] = second compound 3.16 µM, first compound 0.316 µM
[47] = second compound 3.16 µM, first compound 1 µM
[48] = second compound 3.16 µM, first compound 3.16 µM
[49] = second compound 3.16 µM, first compound 10 µM
[50] = second compound 10 µM, first compound 0.0316 µM
[51] = second compound 10 µM, first compound 0.1 µM
[52] = second compound 10 µM, first compound 0.316 µM
[53] = second compound 10 µM, first compound 1 µM
[54] = second compound 10 µM, first compound 3.16 µM
[55] = second compound 10 µM, first compound 10 µM
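Also: spheroids exposed to agents for one week before readout.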

O=C(C=Cc1cccc(S(=O)(=O)Nc2ccccc2)c1)NO + NC1CCC(NC2CC2c2ccccc2)CC1
IC50 [1]: > 3 µM
IC50 [2]: > 3 µM
IC50 [3]: 3 µM
IC50 [4]: > 3 µM
IC50 [5]: 3 µM
viability, T/C [6]: 105%
viability, T/C [7]: 115%
viability, T/C [8]: 122%
viability, T/C [9]: 134%
viability, T/C (second compound 0.1 µM, first compound 0.949 µM): 51.9%
viability, T/C (second compound 0.1 µM, first compound 3 µM): 110%
viability, T/C [10]: 101%
viability, T/C [11]: 108%
viability, T/C [12]: 128%
viability, T/C [13]: 120%
viability, T/C (second compound 0.316 µM, first compound 0.949 µM): 47.7%
viability, T/C (second compound 0.316 µM, first compound 3 µM): 106%
viability, T/C [14]: 81.3%
viability, T/C [15]: 105%
viability, T/C [16]: 108%
viability, T/C [17]: 109%
viability, T/C (second compound 1 µM, first compound 0.949 µM): 44.7%
viability, T/C (second compound 1 µM, first compound 3 µM): 78.8%
viability, T/C [18]: 101%
viability, T/C [19]: 101%
viability, T/C [20]: 102%
viability, T/C [21]: 116%
viability, T/C (second compound 3.16 µM, first compound 0.949 µM): 38.5%
viability, T/C (second compound 3.16 µM, first compound 3 µM): 89.3%
viability, T/C [22]: 79.2%
viability, T/C [23]: 85.5%
viability, T/C [24]: 78.8%
viability, T/C [25]: 117%
viability, T/C (second compound 10 µM, first compound 0.949 µM): 32.9%
viability, T/C (second compound 10 µM, first compound 3 µM): 76.3%

NS(=O)(=O)OCC1CC(n2ccc3c(NC4CCc5ccccc54)ncnc32)CC1O (stereo unspecified)
viability, T/C (compound 0.00949 µM): 106% and 87.5%
viability, T/C (compound 0.03 µM): 58.4% and 62.6%
viability, T/C (compound 0.0949 µM): 35.3% and 33.8%
viability, T/C (compound 0.3 µM): 12.7% and 6.06%
viability, T/C (compound 0.949 µM): 7.91% and 3.62%
viability, T/C (compound 3 µM): 6.79% and 2.48%
IC50 (curve of compound): 0.0449 µM and 0.0491 µM

COc1ccc([C@@H](O)c2cc(-c3ncnc4cc(N5CCOCC5)ccc34)c(F)cc2Cl)nn1 + NC1CCC(NC2CC2c2ccccc2)CC1
IC50 [1]: 4.14 µM
IC50 [2]: 3.72 µM
IC50 [3]: 4.02 µM
IC50 [4]: 4.02 µM
IC50 [5]: 2.79 µM
viability, T/C [26]: 102%
viability, T/C [27]: 82.3%
viability, T/C [28]: 86.9%
viability, T/C [29]: 81.8%
viability, T/C [30]: 62.4%
viability, T/C [31]: 12.6%
viability, T/C [32]: 102%
viability, T/C [33]: 96.8%
viability, T/C [34]: 86.7%
viability, T/C [35]: 79.8%
viability, T/C [36]: 58.4%
viability, T/C [37]: 10.8%
viability, T/C [38]: 94.4%
viability, T/C [39]: 79.2%
viability, T/C [40]: 64.7%
viability, T/C [41]: 74.1%
viability, T/C [42]: 64%
viability, T/C [43]: 12.8%
viability, T/C [44]: 85.4%
viability, T/C [45]: 83.8%
viability, T/C [46]: 75.2%
viability, T/C [47]: 67.5%
viability, T/C [48]: 65.3%
viability, T/C [49]: 9.45%
viability, T/C [50]: 92.6%
viability, T/C [51]: 95.1%
viability, T/C [52]: 63.1%
viability, T/C [53]: 57.4%
viability, T/C [54]: 65.9%
viability, T/C [55]: 11.2%

CC(C)CC(NC(=O)CNC(=O)c1cc(Cl)ccc1Cl)B1OC(=O)CC(CC(=O)O)(C(=O)O)O1 (stereo unspecified)
viability, T/C (compound 0.000316 µM): 90.6% and 106%
viability, T/C (compound 0.001 µM): 89.8% and 95.7%
viability, T/C (compound 0.00316 µM): 102% and 78.5%
viability, T/C (compound 0.01 µM): 9.9% and 4.05%
viability, T/C (compound 0.0316 µM): 7.32% and 0.21%
viability, T/C (compound 0.1 µM): 5.06% and 0.23%
IC50 (curve of compound): 0.00578 µM and 0.00492 µM

COc1ccc([C@@H](O)c2cc(-c3ncnc4cc(N5CCOCC5)ccc34)c(F)cc2Cl)nn1
viability, T/C (compound 0.0316 µM): 81.5% and 87.1%
viability, T/C (compound 0.1 µM): 76.2% and 85.3%
viability, T/C (compound 0.316 µM): 77% and 72.1%
viability, T/C (compound 1 µM): 82.3% and 74.6%
viability, T/C (compound 3.16 µM): 61.9% and 68.9%
viability, T/C (compound 10 µM): 12.8% and 35.8%
IC50 (curve of compound): 4.17 µM and 5.86 µM

CCc1c2c(nc3ccc(O)cc13)-c1cc3c(c(=O)n1C2)COC(=O)[C@]3(O)CC + NC1CCC(NC2CC2c2ccccc2)CC1
IC50 [1]: 0.025 µM
IC50 [2]: 0.0275 µM
IC50 [3]: 0.0294 µM
IC50 [4]: 0.0371 µM
IC50 [5]: 0.0405 µM
viability, T/C (second compound 0.1 µM, first compound 0.000949 µM): 80.5%
viability, T/C (second compound 0.1 µM, first compound 0.003 µM): 99.5%
viability, T/C [6]: 89.6%
viability, T/C [7]: 42.6%
viability, T/C [8]: 19.8%
viability, T/C [9]: 20.4%
viability, T/C (second compound 0.316 µM, first compound 0.000949 µM): 99.6%
viability, T/C (second compound 0.316 µM, first compound 0.003 µM): 92.2%
viability, T/C [10]: 107%
viability, T/C [11]: 46%
viability, T/C [12]: 28.6%
viability, T/C [13]: 12.8%
viability, T/C (second compound 1 µM, first compound 0.000949 µM): 72.6%
viability, T/C (second compound 1 µM, first compound 0.003 µM): 89.5%
viability, T/C [14]: 95.6%
viability, T/C [15]: 49.3%
viability, T/C [16]: 16.8%
viability, T/C [17]: 13.2%
viability, T/C (second compound 3.16 µM, first compound 0.000949 µM): 90.8%
viability, T/C (second compound 3.16 µM, first compound 0.003 µM): 92.1%
viability, T/C [18]: 99.7%
viability, T/C [19]: 56%
viability, T/C [20]: 28.5%
viability, T/C [21]: 18.2%
viability, T/C (second compound 10 µM, first compound 0.000949 µM): 72.3%
viability, T/C (second compound 10 µM, first compound 0.003 µM): 78.3%
viability, T/C [22]: 93.2%
viability, T/C [23]: 58.8%
viability, T/C [24]: 27.1%
viability, T/C [25]: 22.9%

CC1(C)CCC(CN2CCN(c3ccc(C(=O)NS(=O)(=O)c4ccc(NCC5CCOCC5)c([N+](=O)[O-])c4)c(Oc4cnc5[nH]ccc5c4)c3)CC2)=C(c2ccc(Cl)cc2)C1 + NC1CCC(NC2CC2c2ccccc2)CC1
IC50 [1]: 7.56 µM
IC50 [2]: 6.46 µM
IC50 [3]: 9.01 µM
IC50 [4]: 7.55 µM
IC50 [5]: 7.29 µM
viability, T/C [26]: 119%
viability, T/C [27]: 127%
viability, T/C [28]: 132%
viability, T/C [29]: 116%
viability, T/C [30]: 143%
viability, T/C [31]: 25.2%
viability, T/C [32]: 111%
viability, T/C [33]: 109%
viability, T/C [34]: 114%
viability, T/C [35]: 105%
viability, T/C [36]: 132%
viability, T/C [37]: 10.5%
viability, T/C [38]: 95.7%
viability, T/C [39]: 91.2%
viability, T/C [40]: 97.8%
viability, T/C [41]: 104%
viability, T/C [42]: 118%
viability, T/C [43]: 44.8%
viability, T/C [44]: 88.8%
viability, T/C [45]: 99.8%
viability, T/C [46]: 83%
viability, T/C [47]: 98.9%
viability, T/C [48]: 96.6%
viability, T/C [49]: 36%
viability, T/C [50]: 87.4%
viability, T/C [51]: 86.5%
viability, T/C [52]: 85.2%
viability, T/C [53]: 93.1%
viability, T/C [54]: 101%
viability, T/C [55]: 34.5%
